Data taken from ChEMBL document CHEMBL3407349, “The discovery of Polo-like kinase 4 inhibitors: identification of (1R,2S).2-(3-((E).4-(((cis).2,6-dimethylmorpholino)methyl)styryl). 1H.indazol-6-yl)-5'-methoxyspiro[cyclopropane-1,3'-indolin]-2'-one (CFI-400945) as a potent, orally active antitumor agent” (J Med Chem, 2015).
Values belong to the molecule of their own block, whether it stands above or below them.

Legend:
[1] = AUC(infinity) in beagle dog at 1 mg/kg, iv; assay type: ADME, organism-based, Canis lupus familiaris; parameters: time infinity, dose 1 mg/kg, route intravenous; conditions: plasma
[2] = Antitumor activity against human SW620 cells xenografted in CB-17 SCID mouse assessed as tumor growth inhibition at 9.4 mg/kg, po qd administered for 21 days; assay type: functional; conditions: SW-620, 504 h, read-out: TGI
[3] = Growth inhibition of human HCT116 cells after 5 days by SRB assay; assay type: functional; conditions: HCT-116, 120 h
[4] = Growth inhibition of human CAL51 cells after 5 days by SRB assay; assay type: functional; conditions: CAL-51, 120 h
SW-620 = test: Growth inhibition of human SW620 cells after 5 days by SRB assay; assay type: functional; conditions: SW-620, 120 h
MDA-MB-231 = test: Growth inhibition of human MDA-MB-231 cells after 5 days by SRB assay; assay type: functional
[5] = Toxicity in po dosed athymic CD-1 nude mouse xenografted with human HCT116 cells administered qd 1-on/3-off schedule up to day 21; assay type: organism-based, HCT-116; conditions: CD-1 athymic nude, in vivo
Cytochrome P450 2D6 = Cytochrome P450 2D6 (Homo sapiens, UniProt P10635); test: Inhibition of CYP2D6 (unknown origin) by fluorescence assay; assay type: ADME
Sequence of Cytochrome P450 2D6 (P10635 whole entry): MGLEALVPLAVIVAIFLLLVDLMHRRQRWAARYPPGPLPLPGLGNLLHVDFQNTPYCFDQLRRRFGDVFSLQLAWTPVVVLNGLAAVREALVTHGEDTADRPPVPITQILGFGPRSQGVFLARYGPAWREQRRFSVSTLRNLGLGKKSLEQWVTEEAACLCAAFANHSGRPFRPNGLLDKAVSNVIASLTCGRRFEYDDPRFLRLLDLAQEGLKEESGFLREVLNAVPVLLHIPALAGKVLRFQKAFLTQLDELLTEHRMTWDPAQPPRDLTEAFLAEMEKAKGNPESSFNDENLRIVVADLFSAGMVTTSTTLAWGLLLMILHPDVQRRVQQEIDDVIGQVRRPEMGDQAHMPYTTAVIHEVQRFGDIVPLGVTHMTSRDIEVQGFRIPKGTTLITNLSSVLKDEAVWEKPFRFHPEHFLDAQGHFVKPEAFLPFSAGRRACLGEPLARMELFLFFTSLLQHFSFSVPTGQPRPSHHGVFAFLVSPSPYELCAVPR

[6] = Antitumor activity against human HCT116 cells xenografted in athymic CD-1 nude mouse assessed as tumor growth inhibition at MTD, po qd administered 1-on/3-off schedule up to day 21; assay type: functional, HCT-116
[7] = Antitumor activity against human SW620 cells xenografted in CB-17 SCID mouse assessed as tumor growth inhibition at 3 mg/kg, po qd administered for 21 days; assay type: functional; conditions: SW-620, 504 h, read-out: TGI
[8] = Growth inhibition of human SKBR3 cells after 5 days by SRB assay; assay type: functional; conditions: SK-BR-3, 120 h
[9] = AUC(infinity) in Sprague-Dawley rat at 1 mg/kg, iv; assay type: ADME, organism-based; parameters: time infinity, dose 1 mg/kg, route intravenous; conditions: plasma
[10] = Growth inhibition of human OVCAR3 cells after 5 days by SRB assay; assay type: functional; conditions: OVCAR-3, 120 h
A549 [11] = test: Antitumor activity against human A549 cells xenografted in CB-17 SCID mouse assessed as tumor growth inhibition at 3 mg/kg, po qd administered for 21 days; assay type: functional; conditions: A549, 504 h, read-out: TGI
Mus musculus [12] = test: Toxicity in CB-17 SCID mouse xenografted with human MDA-MB-468 cells assessed as loss in body weight at 3 to 9.4 mg/kg, po qd administered for 21 days relative to control; assay type: organism-based; parameters: dose 3-9.4 mg/kg, route oral; conditions: in vivo, 504 h
[13] = Oral bioavailability in beagle dog at 5 mg/kg; assay type: ADME, organism-based, Canis lupus familiaris; conditions: in vivo
Cytochrome P450 1A2 = target: T1, Cytochrome P450 1A2 (Homo sapiens, UniProt P05177); test: Inhibition of CYP1A2 (unknown origin) by fluorescence assay; assay type: ADME
T1 sequence (P05177 whole entry): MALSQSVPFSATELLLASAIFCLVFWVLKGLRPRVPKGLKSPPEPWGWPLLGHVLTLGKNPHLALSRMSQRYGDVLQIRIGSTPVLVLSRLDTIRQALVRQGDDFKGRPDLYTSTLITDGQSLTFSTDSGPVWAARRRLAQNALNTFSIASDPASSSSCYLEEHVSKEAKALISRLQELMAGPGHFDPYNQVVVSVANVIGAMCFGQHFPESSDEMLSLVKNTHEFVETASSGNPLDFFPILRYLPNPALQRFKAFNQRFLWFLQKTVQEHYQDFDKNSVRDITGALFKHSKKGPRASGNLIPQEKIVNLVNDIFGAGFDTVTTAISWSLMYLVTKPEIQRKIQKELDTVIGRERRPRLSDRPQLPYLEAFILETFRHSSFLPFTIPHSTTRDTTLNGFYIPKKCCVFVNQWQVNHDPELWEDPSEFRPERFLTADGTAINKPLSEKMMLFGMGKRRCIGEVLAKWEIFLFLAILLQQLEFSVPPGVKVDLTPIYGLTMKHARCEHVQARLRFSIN

[14] = Cmax in athymic CD1 nude mouse at 25 mg/kg, po by LC/MS/MS analysis; assay type: ADME, organism-based; parameters: dose 25 mg/kg, route oral; conditions: in vivo
[15] = AUC(infinity) in beagle dog at 5 mg/kg, po; assay type: ADME, organism-based, Canis lupus familiaris; parameters: time infinity, dose 5 mg/kg, route oral; conditions: plasma
MCF7 = test: Growth inhibition of human MCF7 cells after 5 days by SRB assay; assay type: functional
[16] = AUC in athymic CD1 nude mouse at 25 mg/kg, po by LC/MS/MS analysis; assay type: ADME, organism-based; parameters: dose 25 mg/kg, route oral; conditions: plasma
MDA-MB-468 [17] = test: Antitumor activity against human MDA-MB-468 cells xenografted in CB-17 SCID mouse assessed as tumor growth inhibition at 9.4 mg/kg, po qd administered for 21 days; assay type: functional; conditions: MDA-MB-468, 504 h, read-out: TGI
[18] = (§1) Growth inhibition of human HMEC cells after 5 days by SRB assay; assay type: cell-based; conditions: HMEC cells
HCC1954 = test: Growth inhibition of human HCC1954 cells after 5 days by SRB assay; assay type: functional; conditions: Homo sapiens, HCC1954, 120 h
A549 [19] = test: Growth inhibition of human A549 cells after 5 days by SRB assay; assay type: functional; conditions: A549, 120 h
[20] = Half life in beagle dog at 1 mg/kg, iv; assay type: ADME, organism-based, Canis lupus familiaris; parameters: dose 1 mg/kg, route intravenous; conditions: in vivo
[21] = Growth inhibition of human BT20 cells after 5 days by SRB assay; assay type: functional; conditions: BT-20, 120 h
MDA-MB-468 [22] = test: Antitumor activity against human MDA-MB-468 cells xenografted in CB-17 SCID mouse assessed as tumor growth inhibition at 3 mg/kg, po qd administered for 21 days; assay type: functional; conditions: MDA-MB-468, 504 h, read-out: TGI
[23] = Half life in Sprague-Dawley rat at 1 mg/kg, iv; assay type: ADME, organism-based; parameters: dose 1 mg/kg, route intravenous; conditions: in vivo
Mus musculus [24] = test: Toxicity in CB-17 SCID mouse xenografted with human MDA-MB-468 cells assessed as mortality at 3 to 9.4 mg/kg, po qd administered for 21 days; assay type: organism-based; parameters: dose 3-9.4 mg/kg, route oral; conditions: in vivo, 504 h
[25] = AUC(infinity) in Sprague-Dawley rat at 5 mg/kg, po; assay type: ADME, organism-based; parameters: dose 5 mg/kg, route oral, time infinity; conditions: plasma
A549 [26] = test: Antitumor activity against human A549 cells xenografted in CB-17 SCID mouse assessed as tumor growth inhibition at 9.4 mg/kg, po qd administered for 21 days; assay type: functional; conditions: A549, 504 h, read-out: TGI
[27] = Growth inhibition of human COLO205 cells after 5 days by SRB assay; assay type: functional; conditions: COLO 205, 120 h
MDA-MB-468 [28] = test: Growth inhibition of human MDA-MB-468 cells after 5 days by SRB assay; assay type: functional
[29] = Oral bioavailability in Sprague-Dawley rat at 5 mg/kg; assay type: ADME, organism-based; conditions: in vivo
Cytochrome P450 3A4 [30] = target: T2, Cytochrome P450 3A4 (Homo sapiens, UniProt P08684); test: Inhibition of CYP3A4 (unknown origin) using DBF as substrate by fluorescence assay
T2 sequence (P08684 whole entry): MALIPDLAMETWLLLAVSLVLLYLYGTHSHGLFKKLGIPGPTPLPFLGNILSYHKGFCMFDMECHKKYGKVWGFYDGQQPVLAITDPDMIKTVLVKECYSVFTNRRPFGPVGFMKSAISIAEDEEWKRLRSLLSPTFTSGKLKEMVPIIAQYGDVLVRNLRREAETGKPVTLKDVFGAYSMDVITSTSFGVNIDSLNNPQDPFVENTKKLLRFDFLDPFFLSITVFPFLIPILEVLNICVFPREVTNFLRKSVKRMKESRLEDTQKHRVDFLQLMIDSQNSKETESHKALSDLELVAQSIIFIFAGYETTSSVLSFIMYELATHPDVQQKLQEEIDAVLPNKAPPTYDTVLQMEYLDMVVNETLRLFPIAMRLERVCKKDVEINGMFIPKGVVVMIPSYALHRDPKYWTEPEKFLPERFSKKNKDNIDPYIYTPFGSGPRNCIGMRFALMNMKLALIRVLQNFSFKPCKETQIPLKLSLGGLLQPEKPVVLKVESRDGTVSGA

[31] = Half life in human liver microsomes; conditions: liver microsomes
Cytochrome P450 3A4 [32] = target: T2, Cytochrome P450 3A4; test: Inhibition of CYP3A4 (unknown origin) using BFC as substrate by fluorescence assay
HMEC = test: as §1; assay type: cell-based; conditions: hmec, 120 h

Compound: C[C@@H]1CN(Cc2ccc(/C=C/c3n[nH]c4cc([C@@H]5C[C@@]56C(=O)Nc5ccccc56)ccc34)cc2)C[C@H](C)O1
AUC(0-inf) [1]: 2050 ng·h/mL | inhibition in vivo at 9.4 mg/kg [2]: 80% | GI50 [3]: 8 nM | GI50 [4]: 91 nM | GI50 (SW-620): 350 nM | GI50 (MDA-MB-231; Homo sapiens, MDA-MB-231, 120 h): 6500 nM | MTD at 21 days [5]: 36 mg/kg | inhibition (INH) (Cytochrome P450 2D6): Not Active | TGI [6]: 78% | inhibition in vivo at 3 mg/kg [7]: 57% | GI50 [8]: 7200 nM | AUC(0-inf) [9]: 1230 ng·h/mL | GI50 [10]: 15 nM | inhibition in vivo at 3 mg/kg (A549 [11]): 44% | Activity (Mus musculus [12]): > 20% | bioavailability [13]: 49% | inhibition (INH) (Cytochrome P450 1A2): Not Active | Cmax [14]: 3700 ng/mL | AUC(0-inf) [15]: 4990 ng·h/mL | GI50 (MCF7; Homo sapiens, MCF7, 120 h): 17 nM | AUC [16]: 10000 ng·h/mL | inhibition in vivo at 9.4 mg/kg (MDA-MB-468 [17]): 90% | GI50 at 120 h [18]: 8400 nM | GI50 (HCC1954): 8 nM | GI50 (A549 [19]): 9 nM | half-life [20]: 4.5 h | GI50 [21]: 90 nM | inhibition in vivo at 3 mg/kg (MDA-MB-468 [22]): 45% | half-life [23]: 3.9 h | Activity (Mus musculus [24]): Non-toxic | AUC(0-inf) [25]: 2810 ng·h/mL | inhibition in vivo at 9.4 mg/kg (A549 [26]): 79% | GI50 [27]: 57 nM | GI50 (MDA-MB-468 [28]; Homo sapiens, MDA-MB-468, 120 h): 10 nM | bioavailability [29]: 46%

GI50 (MDA-MB-231): 820 nM | inhibition (INH) (Cytochrome P450 2D6): Not Active | IC50 (Cytochrome P450 3A4 [30]): 10000 nM | half-life [31]: > 1 h | IC50 (Cytochrome P450 3A4 [32]): 5000 nM | inhibition (INH) (Cytochrome P450 1A2): Not Active | Cmax [14]: 110 ng/mL | GI50 (MCF7): 250 nM | AUC [16]: 260 ng·h/mL | GI50 (MDA-MB-468 [28]): < 1 nM
Compound: CN(C)Cc1ccc(/C=C/c2n[nH]c3cc([C@@H]4C[C@@]45C(=O)Nc4ccccc45)ccc23)cc1
GI50 (HMEC): 19000 nM
